In ChEMBL document CHEMBL3832761, “MMV Pathogen Box Bioactivity Data” (2017):
Converted amounts (≈) assume the structure as drawn.

Experiments:
Type in all cases: functional
[1] = tested on: Mycobacterium tuberculosis; assay: AntiMycobacterium tuberculosis activity Non-Replicating form: Average MIC90 (uM)
[2] = tested on: Mycobacterium tuberculosis; assay: AntiMycobacterium tuberculosis activity 1-week GAST/Fe MIC (uM); details: 168 h
[3] = tested on: Mycobacterium tuberculosis; assay: AntiMycobacterium tuberculosis activity 2-week GAST/Fe MIC (uM); details: 336 h
[4] = tested on: Mycobacterium tuberculosis; assay: AntiMycobacterium tuberculosis activity 1-week 7H9/ADC/Tw MIC (uM); details: 168 h
[5] = tested on: Mycobacterium tuberculosis; assay: AntiMycobacterium tuberculosis activity 2-week 7H9/ADC/Tw MIC (uM); details: 336 h
[6] = tested on: Mycobacterium tuberculosis; assay: AntiMycobacterium tuberculosis activity 2-week Alamar Blue 7H9/ADC/Tw MIC (uM); details: 336 h
[7] = tested on: Mycobacterium tuberculosis; assay: AntiMycobacterium tuberculosis activity 1-week 7H9/glucose/BSA/Tx MIC (uM); details: 168 h
[8] = tested on: Mycobacterium tuberculosis; assay: AntiMycobacterium tuberculosis activity 2-week 7H9/glucose/BSA/Tx MIC (uM); details: 336 h
[9] = tested on: Mycobacterium tuberculosis; assay: AntiMycobacterium tuberculosis activity 1-week 7H9/DPPC/cholesterol/BSA/Tx MIC (uM); details: 168 h
[10] = tested on: Mycobacterium tuberculosis; assay: AntiMycobacterium tuberculosis activity 2-week 7H9/DPPC/cholesterol/BSA/Tx MIC (uM); details: 336 h
[11] = tested on: Mycobacterium tuberculosis; assay: AntiMycobacterium tuberculosis activity 1-week 7H9/cholesterol/BSA/Tx MIC (uM); details: 168 h
[12] = tested on: Mycobacterium tuberculosis; assay: AntiMycobacterium tuberculosis activity 2-week Alamar Blue 7H9/cholesterol/BSA/Tx MIC (uM); details: 336 h
[13] = tested on: Mycobacterium tuberculosis; assay: (§1) AntiMycobacterium tuberculosis activity day 10 in 7H9/2.5mM butyrate/pH6/0.1mM nitrite MIC90 (uM); details: 240 h
[14] = tested on: Mycobacterium tuberculosis; assay: AntiMycobacterium tuberculosis activity day 21 in 7H9/2.5mM butyrate/pH6/0.1mM nitrite MIC90 (uM); details: 504 h
[15] = tested on: Mycobacterium tuberculosis; assay: as §1; details: 240 h; remark: listed apart in the source
[16] = tested on: Mycobacterium tuberculosis; assay: AntiMycobacterium tuberculosis activity day 21 MIC99 in 7H9/2.5mM butyrate/pH6/0.1mM nitrite MIC99 (uM); details: 504 h
[17] = tested on: Mycobacterium tuberculosis; assay: AntiMycobacterium tuberculosis activity Replicating form: Average MIC90 (uM)
HepG2 = assay: HepG2 CC50 (uM) Cytotoxicity; details: Homo sapiens

Cc1ccc(NC(=O)CC2COc3ccccc3O2)cc1Cl (centres undefined)
MIC90 [1]: 56.9 µM (≈ 18.1 µg/mL)
MIC [2]: 9.4 µM (≈ 2.99 µg/mL)
MIC [3]: 12.5 µM (≈ 3.97 µg/mL)
MIC [4]: 37 µM (≈ 11.8 µg/mL)
MIC [5]: 50 µM (≈ 15.9 µg/mL)
MIC [6]: 50 µM (≈ 15.9 µg/mL)
MIC [7]: 19 µM (≈ 6.04 µg/mL)
MIC [8]: 25 µM (≈ 7.94 µg/mL)
MIC [9]: 19 µM (≈ 6.04 µg/mL)
MIC [10]: 37 µM (≈ 11.8 µg/mL)
MIC [11]: 19 µM (≈ 6.04 µg/mL)
MIC [12]: 25 µM (≈ 7.94 µg/mL)
MIC90 [13]: 50 µM (≈ 15.9 µg/mL)
MIC90 [14]: 50 µM (≈ 15.9 µg/mL)
MIC90 [15]: > 50 µM
MIC [16]: > 50 µM
MIC90 [17]: 53.8 µM (≈ 17.1 µg/mL)
CC50 (HepG2): 66.7 µM

O=C(C1CCN(c2cc(-n3cccc3)ncn2)CC1)N1CCc2ccccc2C1
MIC90 [1]: 7.62 µM (≈ 2.95 µg/mL)
MIC [2]: 0.39 µM (≈ 0.151 µg/mL)
MIC [3]: 0.6 µM (≈ 0.232 µg/mL)
MIC [4]: 0.78 µM (≈ 0.302 µg/mL)
MIC [5]: 1.56 µM (≈ 0.604 µg/mL)
MIC [6]: 1.56 µM (≈ 0.604 µg/mL)
MIC [7]: 2.3 µM (≈ 0.891 µg/mL)
MIC [8]: 2.3 µM (≈ 0.891 µg/mL)
MIC [9]: 3.13 µM (≈ 1.21 µg/mL)
MIC [10]: 3.13 µM (≈ 1.21 µg/mL)
MIC [11]: 3.13 µM (≈ 1.21 µg/mL)
MIC [12]: 3.13 µM (≈ 1.21 µg/mL)
MIC90 [13]: 12.5 µM (≈ 4.84 µg/mL)
MIC90 [14]: 50 µM (≈ 19.4 µg/mL)
MIC90 [15]: > 50 µM
MIC [16]: > 50 µM
MIC90 [17]: 7.41 µM (≈ 2.87 µg/mL)
CC50 (HepG2): > 100 µM

Cc1nn(Cc2ccccc2)c(Cl)c1C(=O)NC1CCCCCC1
MIC90 [1]: 5.96 µM (≈ 2.06 µg/mL)
MIC [2]: 0.39 µM (≈ 0.135 µg/mL)
MIC [3]: 0.39 µM (≈ 0.135 µg/mL)
MIC [4]: 19 µM (≈ 6.57 µg/mL)
MIC [5]: 50 µM (≈ 17.3 µg/mL)
MIC [6]: 6.25 µM (≈ 2.16 µg/mL)
MIC [7]: 37 µM (≈ 12.8 µg/mL)
MIC [8]: > 50 µM
MIC [9]: 4.7 µM (≈ 1.63 µg/mL)
MIC [10]: 6.25 µM (≈ 2.16 µg/mL)
MIC [11]: 1.56 µM (≈ 0.54 µg/mL)
MIC [12]: 2.3 µM (≈ 0.796 µg/mL)
MIC90 [13]: 3.12 µM (≈ 1.08 µg/mL)
MIC90 [14]: 25 µM (≈ 8.65 µg/mL)
MIC90 [15]: 3.12 µM (≈ 1.08 µg/mL)
MIC [16]: 25 µM (≈ 8.65 µg/mL)
MIC90 [17]: > 100 µM
CC50 (HepG2): > 100 µM

O=C(NC1CCCCC1)N1CCN(Cc2ccc3c(c2)OCO3)CC1
MIC90 [1]: > 100 µM
MIC [2]: 0.78 µM (≈ 0.269 µg/mL)
MIC [3]: 1.2 µM (≈ 0.415 µg/mL)
MIC [4]: > 50 µM
MIC [5]: > 50 µM
MIC [6]: 12.5 µM (≈ 4.32 µg/mL)
MIC [7]: > 50 µM
MIC [8]: > 50 µM
MIC [9]: 9.4 µM (≈ 3.25 µg/mL)
MIC [10]: 50 µM (≈ 17.3 µg/mL)
MIC [11]: 6.25 µM (≈ 2.16 µg/mL)
MIC [12]: 12.5 µM (≈ 4.32 µg/mL)
MIC90 [13]: > 50 µM
MIC90 [14]: 50 µM (≈ 17.3 µg/mL)
MIC90 [15]: > 50 µM
MIC [16]: 50 µM (≈ 17.3 µg/mL)
MIC90 [17]: > 100 µM
CC50 (HepG2): > 100 µM

N#Cc1nc(-c2ccccc2F)oc1NCCc1ccccc1
MIC90 [1]: 75.5 µM (≈ 23.2 µg/mL)
MIC [2]: 0.78 µM (≈ 0.24 µg/mL)
MIC [3]: 1.56 µM (≈ 0.479 µg/mL)
MIC [4]: > 50 µM
MIC [5]: > 50 µM
MIC [6]: 37 µM (≈ 11.4 µg/mL)
MIC [7]: > 50 µM
MIC [8]: > 50 µM
MIC [9]: 12.5 µM (≈ 3.84 µg/mL)
MIC [10]: 50 µM (≈ 15.4 µg/mL)
MIC [11]: 19 µM (≈ 5.84 µg/mL)
MIC [12]: 12.5 µM (≈ 3.84 µg/mL)
MIC90 [13]: 50 µM (≈ 15.4 µg/mL)
MIC90 [14]: > 50 µM
MIC90 [15]: > 50 µM
MIC [16]: > 50 µM
MIC90 [17]: > 100 µM
CC50 (HepG2): > 100 µM

N#Cc1nc(-c2ccccc2)oc1S(=O)(=O)c1ccc(Cl)cc1
MIC90 [1]: 0.41 µM (≈ 0.141 µg/mL)
MIC [2]: 0.6 µM (≈ 0.207 µg/mL)
MIC [3]: 0.6 µM (≈ 0.207 µg/mL)
MIC [4]: 3.13 µM (≈ 1.08 µg/mL)
MIC [5]: 6.25 µM (≈ 2.15 µg/mL)
MIC [6]: 6.25 µM (≈ 2.15 µg/mL)
MIC [7]: 3.13 µM (≈ 1.08 µg/mL)
MIC [8]: 6.25 µM (≈ 2.15 µg/mL)
MIC [9]: 6.25 µM (≈ 2.15 µg/mL)
MIC [10]: 12.5 µM (≈ 4.31 µg/mL)
MIC [11]: 6.25 µM (≈ 2.15 µg/mL)
MIC [12]: 12.5 µM (≈ 4.31 µg/mL)
MIC90 [13]: 6.25 µM (≈ 2.15 µg/mL)
MIC90 [14]: 12.5 µM (≈ 4.31 µg/mL)
MIC90 [15]: > 50 µM
MIC [16]: > 50 µM
MIC90 [17]: 2.59 µM (≈ 0.893 µg/mL)
CC50 (HepG2): 2.2 µM

O=C(Nc1ccc(C(F)(F)F)c(C(F)(F)F)c1)c1cc(Cl)ccc1O
MIC90 [1]: 0.1 µM (≈ 0.0384 µg/mL)
MIC [2]: 1.56 µM (≈ 0.599 µg/mL)
MIC [3]: 2.3 µM (≈ 0.882 µg/mL)
MIC [4]: 3.13 µM (≈ 1.2 µg/mL)
MIC [5]: 4.7 µM (≈ 1.8 µg/mL)
MIC [6]: 4.7 µM (≈ 1.8 µg/mL)
MIC [7]: 1.56 µM (≈ 0.599 µg/mL)
MIC [8]: 3.13 µM (≈ 1.2 µg/mL)
MIC [9]: 2.3 µM (≈ 0.882 µg/mL)
MIC [10]: 3.13 µM (≈ 1.2 µg/mL)
MIC [11]: 1.56 µM (≈ 0.599 µg/mL)
MIC [12]: 1.56 µM (≈ 0.599 µg/mL)
MIC90 [13]: 1.5 µM (≈ 0.576 µg/mL)
MIC90 [14]: 1.5 µM (≈ 0.576 µg/mL)
MIC90 [15]: 1.5 µM (≈ 0.576 µg/mL)
MIC [16]: 1.5 µM (≈ 0.576 µg/mL)
MIC90 [17]: 2.33 µM (≈ 0.894 µg/mL)
CC50 (HepG2): 0.7 µM

COc1cccc(OCC(=O)c2ccc(Br)cc2)c1
MIC90 [1]: > 100 µM
MIC [2]: 9.4 µM (≈ 3.02 µg/mL)
MIC [3]: 9.4 µM (≈ 3.02 µg/mL)
MIC [4]: 19 µM (≈ 6.1 µg/mL)
MIC [5]: 50 µM (≈ 16.1 µg/mL)
MIC [6]: 25 µM (≈ 8.03 µg/mL)
MIC [7]: 19 µM (≈ 6.1 µg/mL)
MIC [8]: 50 µM (≈ 16.1 µg/mL)
MIC [9]: 19 µM (≈ 6.1 µg/mL)
MIC [10]: 50 µM (≈ 16.1 µg/mL)
MIC [11]: 12.5 µM (≈ 4.01 µg/mL)
MIC [12]: 50 µM (≈ 16.1 µg/mL)
MIC90 [13]: 12.5 µM (≈ 4.01 µg/mL)
MIC90 [14]: 25 µM (≈ 8.03 µg/mL)
MIC90 [15]: 25 µM (≈ 8.03 µg/mL)
MIC [16]: 50 µM (≈ 16.1 µg/mL)
MIC90 [17]: > 100 µM
CC50 (HepG2): > 100 µM
